Test results taken from US4889860A (Nova Pharmaceutical Corporation, priority 1987, dated 1989).

Assays:
[1] = water intake in 24 hr food-deprived rats; assay type: in vivo, rat; conditions: for Water Intake: Table 3, 24 hr; for Cumulative Water Intake: Table 5
Procedure: Rats were given water and powdered food ad lib for 8 days until food intake had stabilized, and body weight and food and water intakes were recorded at the same time every day. Animals were assigned to treatment groups matched on the basis of their 24 hr food consumption on the last baseline day, and rats were food deprived for 24 hr immediately before injection of the test compound. […] The compound of Example XII was injected S.C. at doses of 1.15, 2.31, 11.55 and 23.09 μmol/kg, in a volume of 4 ml/kg of 0.3% acetic acid. Controls were injected with the vehicle solutions in the appropriate volumes. Food and water intakes were measured at 1, 3 and 24 hr after treatment. Data for each measure and time point were analyzed by one-way analysis of variance (ANOVA), and post-hoc comparisons were performed using Dunnett's test in order to compare the control mean to each of the treatment means.
Rats were given water and powdered food for 8 days, and following this,
Testing was performed as described above, and baseline measurements were recorded for 7 days. […] The compound of Example XII was injected at doses of 11.55, 23.09, 46.19 and 92.38 μmol/kg by suspension in a solution of 1:1 DMSO:water in a volume of 3 ml/kg. Food and water intakes were recorded at 1, 2, 4 and 6 h following treatment.
See Table 3 for experimental details, except that baseline measurements

[2] = conditioned taste aversion in rats; assay type: in vivo, rat; conditions: for conditioned taste aversion (milk intake, preference ratio): I.P., day 10
Procedure: The ability of a compound to inhibit feeding may not be related to its anorectic properties, but rather to the ability of that compound to produce a conditioned taste aversion. This possibility was tested in the following experiment. Animals were adapted to water deprivation by restricting their access to water to a single 30 min presentation occurring at the same time every day. Baseline water intakes were determined for 7 days until intakes had stabilized, and animals were assigned to treatment groups based on their intakes on the final baseline day. On the following day (day 8), all rats received a bottle of condensed milk (diluted 2:1 water:milk) in place of the water, and intakes were recorded for 30 min. Fifteen minutes after the milk was removed, rats were administered an I.P. injection of vehicles, LiCl (299.6 μmol/kg) or the compound of Example XII (1.15, 2.31, 11.55 and 23.09 μmol/kg). The compound of Example XII was dissolved in 0.3% acetic acid in a volume of 4 ml/kg. LiCl was dissolved in saline, and serves as a positive control, since it is a compound that reliably produces a strong conditioned taste aversion. This procedure was repeated on day 9. On day 10, all rats were given a two-bottle choice of water or the milk:water solution, and intakes were recorded for 30 min. Data for each experiment were analyzed by one-way ANOVA, and post-hoc comparisons were performed using Dunnett's test.
The effects of the compound of Example XII in producing a conditioned taste aversion are illustrated in FIGS. 28 and 29. In FIGS. 28 and 29 the data represent the mean ±SEM for each group. **=p<0.01 (Dunnett's test). Abbreviations: SAL, saline; AA, 0.3% acetic acid in distilled water; LiCl, lithium chloride. Doses of the compound of Example XII for each group are expressed in μmole/kg. The number of animals per group: SAL, 4: AA, LiCl and each dose of Example XII, 5. FIG. 28: Total milk intake in ml on day 10. FIG. 29: Preference ratio on day 10.

## Oc1ccc2c3c1O[C@H]1C(=NOc4ccccc4)CC[C@@]4(O)[C@@H](C2)N(CC2CC2)CC[C@]314 [Example XII, 6-Phenyloximino-17-cyclopropylmethyl-4,5 α-epoxy-3, 14-dihydroxymorphinan]
[1]; S.C. 1.15 μmol/kg
  Water Intake: 68.3 ± 8.8 mL
[1]; S.C. 2.31 μmol/kg
  Water Intake: 65.0 ± 6.2 mL
[1]; S.C. 11.55 μmol/kg
  Water Intake: 60.3 ± 2.1 mL
[1]; S.C. 23.09 μmol/kg
  Water Intake: 62.8 ± 3.6 mL
[1]; S.C. 11.55 μmol/kg, 0-1 Hr
  Cumulative Water Intake: 4.8 ± 1.1 mL
[1]; S.C. 11.55 μmol/kg, 0-2 Hr
  Cumulative Water Intake: 8.0 ± 1.2 mL
[1]; S.C. 11.55 μmol/kg, 0-4 Hr
  Cumulative Water Intake: 15.6 ± 2.5 mL
[1]; S.C. 11.55 μmol/kg, 0-6 Hr
  Cumulative Water Intake: 22.0 ± 1.6 mL
[1]; S.C. 23.09 μmol/kg, 0-1 Hr
  Cumulative Water Intake: 4.0 ± 1.0 mL
[1]; S.C. 23.09 μmol/kg, 0-2 Hr
  Cumulative Water Intake: 7.2 ± 0.6 mL
[1]; S.C. 23.09 μmol/kg, 0-4 Hr
  Cumulative Water Intake: 13.2 ± 2.3 mL
[1]; S.C. 23.09 μmol/kg, 0-6 Hr
  Cumulative Water Intake: 19.6 ± 2.2 mL
[1]; S.C. 46.19 μmol/kg, 0-1 Hr
  Cumulative Water Intake: 5.2 ± 0.9 mL
[1]; S.C. 46.19 μmol/kg, 0-2 Hr
  Cumulative Water Intake: 8.0 ± 1.6 mL
[1]; S.C. 46.19 μmol/kg, 0-4 Hr
  Cumulative Water Intake: 15.2 ± 1.5 mL
[1]; S.C. 46.19 μmol/kg, 0-6 Hr
  Cumulative Water Intake: 20.8 ± 2.9 mL
[1]; S.C. 92.38 μmol/kg, 0-1 Hr
  Cumulative Water Intake: 4.0 ± 0.7 mL
[1]; S.C. 92.38 μmol/kg, 0-2 Hr
  Cumulative Water Intake: 7.6 ± 0.8 mL
[1]; S.C. 92.38 μmol/kg, 0-4 Hr
  Cumulative Water Intake: 15.2 ± 1.8 mL
[1]; S.C. 92.38 μmol/kg, 0-6 Hr
  Cumulative Water Intake: 21.2 ± 2.1 mL
[2]
  conditioned taste aversion (milk intake, preference ratio): totally ineffective in producing a conditioned taste aversion
[2]; listed as Compound XII
  conditioned taste aversion (milk intake, preference ratio): inability of various doses
[2]; doses up to 23.09 μmol/kg
  general malaise: does not appear to cause any general malaise at doses up to 23.09 μmol/kg
